A word on the IC50: it is the concentration needed to halve the response being measured.

T1 sequence (Q04759 whole entry): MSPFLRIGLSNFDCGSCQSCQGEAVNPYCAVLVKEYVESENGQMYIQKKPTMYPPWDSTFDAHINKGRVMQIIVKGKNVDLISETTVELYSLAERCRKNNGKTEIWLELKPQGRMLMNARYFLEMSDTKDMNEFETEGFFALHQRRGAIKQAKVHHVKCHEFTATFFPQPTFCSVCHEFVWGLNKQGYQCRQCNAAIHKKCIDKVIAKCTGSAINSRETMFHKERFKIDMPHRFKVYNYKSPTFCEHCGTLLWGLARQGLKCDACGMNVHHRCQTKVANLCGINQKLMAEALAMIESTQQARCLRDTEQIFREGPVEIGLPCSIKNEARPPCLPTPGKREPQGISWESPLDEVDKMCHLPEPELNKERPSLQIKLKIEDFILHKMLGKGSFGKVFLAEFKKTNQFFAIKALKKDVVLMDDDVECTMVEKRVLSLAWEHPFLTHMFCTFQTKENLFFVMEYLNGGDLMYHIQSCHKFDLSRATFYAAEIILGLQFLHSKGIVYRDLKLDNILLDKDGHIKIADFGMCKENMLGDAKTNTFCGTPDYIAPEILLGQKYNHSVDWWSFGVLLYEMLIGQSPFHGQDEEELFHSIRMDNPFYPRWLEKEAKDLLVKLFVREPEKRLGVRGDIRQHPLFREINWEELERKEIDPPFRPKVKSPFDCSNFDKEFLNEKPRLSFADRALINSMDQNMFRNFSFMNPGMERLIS

The assay addresses T1, human PKCθ full length enzyme (Homo sapiens, UniProt Q04759).
T1 construct: human PKCθ full length enzyme (Panvera Cat# P2996); purchased Panvera P2996
Put plainly: PKCθ IMAP assay (fluorescence polarization). It is filed as biochemical. As to conditions: human PKCθ full length enzyme, IMAP; average value; read-out: IC50 PKCθ IMAP. For orientation: Polarisation of emitted light reports the rotation of a fluorescent probe.
As for `Cc1c(Nc2c(C#N)cncc2-c2ccc(OCCN3CCN(CCN(C)C)CC3)cc2)ccc2[nH]ccc12` [Compound 428, 5-[4-(2-{4-[2-(dimethylamino)ethyl]piperazin-1-yl}ethoxy)phenyl]-4-[(4-methyl-1H-indol-5-yl)amino]nicotinonitrile], the IC50 stood at 0.015 µM. Under `Cc1c(Nc2c(C#N)cncc2-c2ccc(N3CCCCC3)nc2)ccc2[nH]ccc12` [Compound 508, 4-[(4-methyl-1H-indol-5-yl)amino]-6′-piperidin-1-yl-3,3′-bipyridine-5-carbonitrile] stands 0.078 µM. The figure for `CN(C)CCCOc1ccc(-c2cncc(C#N)c2Nc2cccc3[nH]ccc23)cn1` [Compound 356, 6′-[3-(dimethylamino)propoxy]-4-(1H-indol-4-ylamino)-3,3′-bipyridine-5-carbonitrile] is 0.04 µM. Under `Cc1c(Nc2c(C#N)cncc2-c2ccc(N)cc2)ccc2[nH]ccc12` [Compound 571, 5-(4-aminophenyl)-4-[(4-methyl-1H-indol-5-yl)amino]nicotinonitrile] stands 0.016 µM; under `COc1ccc(-c2cncc(C#N)c2Nc2cc3cc[nH]c3cc2C)cc1OC` [Compound 412, 5-(3,4-dimethoxyphenyl)-4-[(6-methyl-1H-indol-5-yl)amino]nicotinonitrile], 0.01 µM. `COc1ccc(-c2cncc(C#N)c2NC[C@H]2CCC[C@@H](CN)C2)cc1OC` (relative stereo) [Compound 443, 4-({[cis-3-(aminomethyl)cyclohexyl]methyl}amino)-5-(3,4-dimethoxyphenyl)nicotinonitrile]: the IC50 amounted to 1.13 µM. The figure for `COc1ccc(-c2cncc(C#N)c2Nc2ccc3[nH]ccc3c2)cc1OCCNCc1ccccc1` [Compound 181, 5-{3-[2-(benzylamino)ethoxy]-4-methoxyphenyl}-4-(1H-indol-5-ylamino)nicotinonitrile] is 0.039 µM; for `Cc1c(Nc2c(C#N)cncc2-c2cnc(N3CCCC3)nc2)ccc2[nH]ccc12` [Compound 512, 4-[(4-methyl-1H-indol-5-yl)amino]-5-(2-pyrrolidin-1-ylpyrimidin-5-yl)nicotinonitrile] it is 0.215 µM.

For `Cc1c(Nc2c(C#N)cncc2-c2ccc(NC(=O)N(C)C)cc2)ccc2[nH]ccc12` [Compound 568, 3-(4-{5-cyano-4-[(4-methyl-1H-indol-5-yl)amino]pyridin-3-yl}phenyl)-1,1-dimethylurea], the half-maximal inhibitory concentration (IC50) is 0.056 µM.

Regarding `Cc1c(Nc2c(C#N)cncc2-c2cc3cc(CNCc4ccncc4)ccc3o2)ccc2[nH]ccc12` [Compound 400, 4-[(4-methyl-1H-indol-5-yl)amino]-5-(5-{[(pyridin-4-ylmethyl)amino]methyl}-1-benzofuran-2-yl)nicotinonitrile], the IC50 is 0.002 µM. Under `Cc1c(Nc2c(C#N)cncc2-c2ccc(OCCCN3CCN(C)CC3)cc2)ccc2[nH]ccc12` [Compound 472, 4-[(4-methyl-1H-indol-5-yl)amino]-5-{4-[3-(4-methylpiperazin-1-yl)propoxy]phenyl}nicotinonitrile] stands 0.019 µM; under `Cc1c(Nc2c(C#N)cncc2-c2ccc(CN3CCC(N(C)C)CC3)o2)ccc2[nH]ccc12` [Compound 436, 5-(5-{[4-(dimethylamino)piperidin-1-yl]methyl}-2-furyl)-4-[(4-methyl-1H-indol-5-yl)amino]nicotinonitrile], 0.001 µM; under `Cc1c(Nc2c(C#N)cncc2-c2ccc(CN3CCN(C)CC3)o2)ccc2[nH]ccc12` [Compound 468, 4-[(4-methyl-1H-indol-5-yl)amino]-5-{5-[(4-methylpiperazin-1-yl)methyl]-2-furyl}nicotinonitrile], 0.004 µM.

Consider “5-{5-[(cyclohexylamino)methyl]-1-benzofuran-2-yl}-4-[(4-methyl-1H-indol-5-yl)amino]nicotinonitrile [Compound 387]”, for which the IC50 turned out to be 0.001 µM. Under `Cc1c(Nc2c(C#N)cncc2-c2csc(CN3CCN(C)CC3)c2)ccc2[nH]ccc12` [Compound 518, 4-[(4-methyl-1H-indol-5-yl)amino]-5-{5-[(4-methylpiperazin-1-yl)methyl]-3-thienyl}nicotinonitrile] stands 0.005 µM; under “4-[(4-methyl-1H-indol-5-yl)amino]-5-[5-(thiomorpholin-4-ylmethyl)-2-furyl]nicotinonitrile [Compound 411]”, 0.008 µM. Turning to `CCCCN(CCCC)Cc1ccc(-c2cncc(C#N)c2Nc2ccc3[nH]ccc3c2C)o1` [Compound 407, 5-{5-[(dibutylamino)methyl]-2-furyl}-4-[(4-methyl-1H-indol-5-yl)amino]nicotinonitrile], the IC50 stood at 0.02 µM.

As to `CCN1CCN(CCOc2cc(-c3cncc(C#N)c3Nc3ccc4[nH]ccc4c3)ccc2OC)CC1` [Compound 234, 5-{3-[2-(4-ethylpiperazin-1-yl)ethoxy]-4-methoxyphenyl}-4-(1H-indol-5-ylamino)nicotinonitrile], the half-maximal inhibitory concentration (IC50) came to 0.19 µM. The figure for `N#Cc1cncc(-c2cc3cc(CNCCc4ccccc4)ccc3s2)c1Nc1cccc2[nH]ccc12` [Compound 287, 4-(1H-indol-4-ylamino)-5-(5-{[(2-phenylethyl)amino]methyl}-1-benzothien-2-yl)nicotinonitrile] is 0.003 µM; for `Cc1c(Nc2c(C#N)cncc2-c2ccc(OCCCCN3CCN(C)CC3)cc2)ccc2[nH]ccc12` [Compound 491, 4-[(4-methyl-1H-indol-5-yl)amino]-5-{4-[4-(4-methylpiperazin-1-yl)butoxy]phenyl}nicotinonitrile] it is 0.015 µM.

In the case of `N#Cc1cncc(-c2ccccc2Br)c1Nc1ccc2[nH]ccc2c1` [Compound 115, 5-(2-bromophenyl)-4-(1H-indol-5-ylamino)nicotinonitrile], the half-maximal inhibitory concentration (IC50) turned out to be 0.31 µM.

For the compound `CN(C)S(=O)(=O)c1ccc(-c2cncc(C#N)c2Nc2cccc3[nH]ccc23)cc1` [Compound 326, 4-[5-cyano-4-(1H-indol-4-ylamino)pyridin-3-yl]-N,N-dimethylbenzenesulfonamide], the concentration for half-maximal inhibition (IC50) stood at 0.19 µM.

For the compound `CCC(CC)NC(=O)c1ccc(-c2cccc(-c3cncc(C#N)c3Nc3ccc4[nH]ccc4c3)c2)cc1` [Compound 198, 3′-[5-cyano-4-(1H-indol-5-ylamino)pyridin-3-yl]-N-(1-ethylpropyl)biphenyl-4-carboxamide], the 50% inhibitory concentration (IC50) amounted to 0.33 µM.

On to `Cc1c(Nc2c(C#N)cncc2-c2ccccc2N)ccc2[nH]ccc12` [Compound 573, 5-(2-aminophenyl)-4-[(4-methyl-1H-indol-5-yl)amino]nicotinonitrile], for which the 50% inhibitory concentration (IC50) came out at 0.057 µM.

As to `Cc1c(Nc2c(C#N)cncc2-c2cc3ccccc3n2C)ccc2[nH]ccc12` [Compound 586, 5-(1-methyl-1H-indol-2-yl)-4-[(4-methyl-1H-indol-5-yl)amino]nicotinonitrile], the IC50 is 0.0087 µM.

As to `COc1ccc(-c2cncc(C#N)c2Nc2ccc3[nH]ccc3c2)cc1OCCN1CCN(C)CC1` [Compound 231, 4-(1H-indol-5-ylamino)-5-{4-methoxy-3-[2-(4-methylpiperazin-1-yl)ethoxy]phenyl}nicotinonitrile], the IC50 was 0.25 µM. The figure for `Cc1c(Nc2c(C#N)cncc2-c2ccc3[nH]ccc3c2)ccc2[nH]ccc12` [Compound 587, 5-(1H-indol-5-yl)-4-[(4-methyl-1H-indol-5-yl)amino]nicotinonitrile] is 0.036 µM; for “4-(1H-indol-4-ylamino)-5-[4-methoxy-3-(2-{[2-(1-methylpyrrolidin-2-yl)ethyl]amino}ethoxy)phenyl]nicotinonitrile [Compound 341]” it is 0.003 µM. For `COc1ccc(-c2cncc(C#N)c2Nc2cccc3[nH]ccc23)cc1OCCNCCCN1CCOCC1` [Compound 364, 4-(1H-indol-4-ylamino)-5-(4-methoxy-3-{2-[(3-morpholin-4-ylpropyl)amino]ethoxy}phenyl)nicotinonitrile], the IC50 stood at 0.01 µM. On to `COc1ccc(-c2cncc(C#N)c2Nc2ccc3[nH]ccc3c2C)cc1` [Compound 559, 5-(4-methoxyphenyl)-4-[(4-methyl-1H-indol-5-yl)amino]nicotinonitrile], for which the IC50 is 0.006 µM. The figure for `Cc1c(Nc2c(C#N)cncc2-c2cc3cc(CNCc4cccnc4)ccc3o2)ccc2[nH]ccc12` [Compound 399, 4-[(4-methyl-1H-indol-5-yl)amino]-5-(5-{[(pyridin-3-ylmethyl)amino]methyl}-1-benzofuran-2-yl)nicotinonitrile] is 0.002 µM; for `COc1ccc(-c2cncc(C#N)c2Nc2cccc3[nH]ccc23)cc1OCCNCCO` [Compound 249, 5-(3-{2-[(2-hydroxyethyl)amino]ethoxy}-4-methoxyphenyl)-4-(1H-indol-4-ylamino)nicotinonitrile] it is 0.03 µM; for `Cc1c(Nc2c(C#N)cncc2-c2cc3cc(CN(C)C)ccc3o2)ccc2[nH]ccc12` [Compound 382, 5-{5-[(dimethylamino)methyl]-1-benzofuran-2-yl}-4-[(4-methyl-1H-indol-5-yl)amino]nicotinonitrile] it is 0.006 µM. The figure for `COc1ccc(-c2cncc(C#N)c2Nc2ccc3[nH]ccc3c2)cc1OCCN(C(C)C)C(C)C` [Compound 180, 5-{3-[2-(diisopropylamino)ethoxy]-4-methoxyphenyl}-4-(1H-indol-5-ylamino)nicotinonitrile] is 0.69 µM; for `COc1ccc(-c2cncc(C#N)c2Nc2ccc3[nH]ccc3c2)cc1OCCCl` [Compound 178, 5-[3-(2-chloroethoxy)-4-methoxyphenyl]-4-(1H-indol-5-ylamino)nicotinonitrile] it is 0.11 µM; for `N#Cc1cncc(-c2cccc(-c3ccc(C(=O)NCc4ccncc4)cc3)c2)c1Nc1ccc2[nH]ccc2c1` [Compound 214, 3′-[5-cyano-4-(1H-indol-5-ylamino)pyridin-3-yl]-N-(pyridin-4-ylmethyl)biphenyl-4-carboxamide] it is 0.25 µM. Under `Cc1c(Nc2c(C#N)cncc2-c2ccc(NC(=O)C(C)C)cc2)ccc2[nH]ccc12` [Compound 579, N-(4-{5-cyano-4-[(4-methyl-1H-indol-5-yl)amino]pyridin-3-yl}phenyl)-2-methylpropanamide] stands 4.73 µM.

These data come from US7781591B2, “Substituted 3-cyanopyridines as protein kinase inhibitors” (Wyeth LLC, priority 2006, dated 2010).
